One experiment deals with p97 (Homo sapiens, UniProt P55072). Briefly: p97 ATPase assay (Kinase Glo Plus; biomol green for compounds that interfere with luciferase). The experiment is classed as biochemical. A digest of the protocol: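 Purified p97 in 50 mM Tris pH 7.4, 20 mM MgCl2, 1 mM EDTA, 0.5 mM TCEP, preincubated 10 min with compound (0–30 μM, triplicate), then ATP 60 min at room temperature. Remaining ATP read by Kinase Glo Plus luminescence, or biomol green at 630 nm for luciferase-interfering compounds; % activity versus DMSO and no-enzyme controls, mean ± SE.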
Sequence of p97 (P55072 2-806 limits assumed): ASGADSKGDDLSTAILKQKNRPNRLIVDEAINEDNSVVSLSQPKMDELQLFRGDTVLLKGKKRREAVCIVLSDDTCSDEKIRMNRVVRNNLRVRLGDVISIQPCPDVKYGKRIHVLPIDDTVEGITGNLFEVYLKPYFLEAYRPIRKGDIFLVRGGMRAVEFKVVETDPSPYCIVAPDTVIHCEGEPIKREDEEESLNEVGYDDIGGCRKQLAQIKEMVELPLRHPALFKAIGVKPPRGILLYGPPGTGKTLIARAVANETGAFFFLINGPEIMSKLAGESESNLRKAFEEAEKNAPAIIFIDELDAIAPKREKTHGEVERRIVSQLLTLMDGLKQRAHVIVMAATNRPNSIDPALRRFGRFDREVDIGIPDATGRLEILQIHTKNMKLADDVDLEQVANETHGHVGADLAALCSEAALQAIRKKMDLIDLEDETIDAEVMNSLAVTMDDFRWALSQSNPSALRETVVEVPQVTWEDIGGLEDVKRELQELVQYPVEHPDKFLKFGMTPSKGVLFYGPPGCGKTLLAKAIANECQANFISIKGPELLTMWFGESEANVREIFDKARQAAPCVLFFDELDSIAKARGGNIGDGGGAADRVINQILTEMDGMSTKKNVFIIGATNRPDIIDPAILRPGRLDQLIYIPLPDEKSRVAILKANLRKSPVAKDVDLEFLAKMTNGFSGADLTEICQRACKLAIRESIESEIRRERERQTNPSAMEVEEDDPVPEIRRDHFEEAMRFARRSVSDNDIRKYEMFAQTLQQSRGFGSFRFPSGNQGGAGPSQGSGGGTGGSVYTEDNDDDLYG
On the technique in general: In Kinase-Glo more light means more ATP remaining.

Experiment [1] has as its system p97-dependent Ub^G76V-GFP degradation in HeLa cells. The experiment in a line: Ub^G76V-GFP degradation (turn-over) assay. The experiment is classed as cell-based, human. As to conditions: Homo sapiens, HeLa. The gist of the method: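 HeLa cells expressing Ub^G76V-GFP were imaged, and mean GFP intensity per cell area was taken over 300-500 cells, background-subtracted and normalized to DMSO-treated basal intensity. The degradation rate constant k with compound is expressed as percent of the DMSO control k.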

Setting [2] is: purified p97, ATP, 60 min room temperature, mean +/- standard error.
Setting [3] is: read-out: IC50 (μM) Ub^G76V-GFP turn over, Ub^G76V-GFP-expressing HeLa cells, degradation rate constant k from 90 to 180 min, mean +/- standard error.
[4] abbreviates: read-out: IC50 (μM) Ub^G76V-GFP turn over, p97-dependent Ub^G76V-GFP degradation turn-over assay.

Here are results for 34 compounds from patent US20110288082A1, “METHODS AND COMPOSITIONS FOR INHIBITION OF THE TRANSITIONAL ENDOPLASMIC RETICULUM ATPASE” (priority 2010, published 2011).

A word on the IC50: it is the concentration at which inhibition is half-maximal.

Like-named read-outs stand apart in the source and are kept apart here.

`COc1cccc2c(NCc3ccccc3)nc(NCC3CCCCC3)nc12` [XI-13]: the values for the IC50 (at p97 (setting [2]); in experiment [1] (setting [3])) were 5.4 ± 0.9 µM and 4.2 ± 1 µM, respectively.

On to `COc1cccc2c(NCc3ccccc3)nc(NCc3cncs3)nc12` [XI-15], for which the IC50 on p97 (setting [2]) is 11 ± 1 µM; in experiment [1] (setting [3]) it was 10 ± 3 µM.

For the compound `COc1cccc2c(NCc3ccccc3)nc(Nc3cc(C)cc(F)c3)nc12` [XI-18], the IC50 stood at 1.5 ± 0.2 µM on p97 (setting [2]) and 7.1 ± 0.5 µM in experiment [1] (setting [3]).

Regarding `COc1cccc2c(NCc3ccccc3)nc(N3CCN(C(C)=O)CC3)nc12` [XI-19], the IC50 on p97 (p97 ATPase assay) is greater than 30 µM; in experiment [1] (setting [4]), greater than 20 µM.

As for `COc1cccc2c(NCc3cncs3)nc(N3CCOc4ccccc43)nc12` [XII-1], the IC50 is 38 ± 7 µM at p97 (p97 ATPase assay) and 20 ± 3 µM in experiment [1] (setting [4]).

On to `COc1cccc2c(NCc3cccc(N(C)C)c3)nc(N3CCOc4ccccc43)nc12` [XII-2], for which the IC50 worked out at 52 ± 10 µM at p97 (p97 ATPase assay) and 19 ± 4 µM in experiment [1] (setting [4]).

On to `COc1cccc2c(NCc3ccc(F)cc3)nc(N3CCOc4ccccc43)nc12` [XII-4], for which the IC50 is 1.9 ± 0.4 µM at p97 (setting [2]) and 3.7 ± 0.6 µM in experiment [1] (setting [3]).

Turning to `COc1cccc2c(NCc3cccs3)nc(N3CCOc4ccccc43)nc12` [XII-5], the IC50 came to 1.2 ± 0.2 µM on p97 (setting [2]) and 3 ± 0.6 µM in experiment [1] (setting [3]).

On to `COc1cccc2c(NCC3CCCCC3)nc(N3CCOc4ccccc43)nc12` [XII-6], for which the IC50 stood at 7.4 ± 0.9 µM on p97 (setting [2]) and 8.2 ± 1 µM in experiment [1] (setting [3]).

Turning to `COc1cccc2c(NCc3ccccn3)nc(N3CCOc4ccccc43)nc12` [XII-7], the concentration for half-maximal inhibition (IC50) was 19 ± 5 µM on p97 (setting [2]) and 15 ± 4 µM in experiment [1] (setting [3]).

Turning to `COc1cccc2c(NCc3ccccc3O)nc(N3CCOc4ccccc43)nc12` [XII-8], the IC50 was determined as 4.6 ± 1 µM on p97 (setting [2]) and 6 ± 0.6 µM in experiment [1] (setting [3]).

With `COc1cccc2c(NCc3ccccc3N(C)C)nc(N3CCOc4ccccc43)nc12` [XII-9], the IC50 on p97 (p97 ATPase assay) was determined as 47 ± 22 µM; in experiment [1] (setting [4]), 4.5 ± 0.5 µM.

With `COc1cccc2c(NCc3ccc(O)cc3)nc(N3CCOc4ccccc43)nc12` [XII-10], the IC50 was found to be 2.4 ± 0.5 µM on p97 (setting [2]) and 7.3 ± 1 µM in experiment [1] (setting [3]).

With `COc1cccc2c(N3CCOc4ccccc43)nc(N3CCOc4ccccc43)nc12` [XII-11], the figures for the IC50 (at p97 (p97 ATPase assay); in experiment [1] (setting [4])) were greater than 30 µM and 8.1 ± 1.8 µM, respectively.

For `Nc1nc(CCl)nc(N(c2ccccc2)c2ccccc2)n1` [XIII], the IC50 at p97 (setting [2]) amounted to 13 ± 5 µM; in experiment [1] (setting [3]), 10 ± 2 µM.

Turning to `CC(C)c1ccc(Nc2nc(N)nc(CCl)n2)cc1` [XIV], the half-inhibitory concentration (IC50) at p97 (setting [2]) was found to be 15 ± 5 µM; in experiment [1] (setting [3]), 14 ± 2.4 µM.

`CCc1nc2ccccc2n1CC(=O)OCC(=O)C(C#N)=C1Nc2ccccc2N1` [XIX]: the values for the IC50 (at p97 (setting [2]); in experiment [1] (setting [3])) were 14 ± 6 µM and 7.2 ± 1.1 µM, respectively.

For the compound `CC(C)Nc1nc(Nc2cccc(Cl)c2)nc2ccccc12` [XLII], the IC50 at p97 (p97 ATPase assay) is greater than 30 µM; in experiment [1] (setting [4]) it was 11 ± 2 µM.

Consider `COc1ccc(Nc2nc(N3CCN(c4ccc([N+](=O)[O-])cc4)CC3)nc3ccccc23)c(OC)c1` [XLIX], for which the IC50 at p97 (p97 ATPase assay) stood at 43 ± 13 µM; in experiment [1] (setting [4]), 70 ± 16 µM.

As to `COc1ccc(Nc2nc(N3CCN(S(=O)(=O)c4ccc(C)cc4)CC3)nc3ccccc23)cc1` [XLVIII], the values for the IC50 (on p97 (p97 ATPase assay); in experiment [1] (setting [4])) were 22 ± 12 µM and 39 ± 18 µM, respectively.

Turning to `c1ccc(CNc2nc(N3CCN(c4ccccc4)CC3)nc3ccccc23)cc1` [XLVII], the IC50 came out at 34 ± 11 µM on p97 (p97 ATPase assay) and 35 ± 5 µM in experiment [1] (setting [4]).

Regarding `CC(Nc1nc(N2CCOCC2)nc2ccccc12)c1ccccc1` (centres unmarked) [XLVI], the values for the IC50 (on p97 (p97 ATPase assay); in experiment [1] (setting [4])) were 34 ± 10 µM and 36 ± 0.3 µM, respectively.

Regarding `CN1CCN(c2nc(NCc3ccccc3)c3ccccc3n2)CC1` [XLV], the IC50 at p97 (p97 ATPase assay) was 53 ± 18 µM; in experiment [1] (setting [4]) it was 31 ± 6 µM.

Take `N#CC(C(=O)COC(=O)CCC(=O)c1ccc2c(c1)OCCO2)=C1Nc2ccccc2N1` [XVIII]: the IC50 on p97 (setting [2]) amounted to 10 ± 4 µM; in experiment [1] (setting [3]), 6.3 ± 0.6 µM.

As to `Nc1nc(CCl)nc(Nc2ccc(Cl)c(Cl)c2)n1` [XVII], the IC50 on p97 (setting [2]) was found to be 15 ± 4 µM; in experiment [1] (setting [3]), 5.7 ± 0.8 µM.

Regarding `Cc1c(Cl)cccc1Nc1nc(N)nc(CCl)n1` [XVI], the IC50 on p97 (setting [2]) is 18 ± 8 µM; in experiment [1] (setting [3]) it was 5.9 ± 1 µM.

As for `Nc1nc(CCl)nc(Nc2ccc(Oc3ccccc3)cc2)n1` [XV], the results for the IC50 (on p97 (setting [2]); in experiment [1] (setting [3])) were 14 ± 5 µM and 3.7 ± 0.6 µM, respectively.

On to `COc1cccc2c(NCc3ccccc3)nc(-n3c(N)nc4cc(C)c(C)cc43)nc12` [XXI-1], for which the IC50 stood at 2 ± 0.4 µM on p97 (p97 ATPase assay) and 89 ± 39 µM in experiment [1] (setting [4]).

With `c1ccc(CNc2nc(N3CCN(Cc4ccccc4)CC3)nc3ccccc23)cc1` [XXIII], the IC50 at p97 (p97 ATPase assay) was determined as 33 ± 8 µM; in experiment [1] (setting [4]), 12 ± 1 µM.

Turning to `Clc1ccccc1-c1nc(N2CCCc3ccccc32)c2ccccc2n1` [XXIV], the values for the IC50 (on p97 (p97 ATPase assay); in experiment [1] (setting [4])) were greater than 30 µM and 11 ± 0.8 µM, respectively.

On to `COc1ccc(Nc2nc(Nc3ccc(OC)cc3)c3ccccc3n2)cc1` [XXV-1], for which the IC50 stood at 22 ± 4 µM at p97 (p97 ATPase assay) and 23 ± 3 µM in experiment [1] (read-out: IC50 (μM) Ub^G76V-GFP turn over).

Consider `Clc1cccc(Nc2nc(Nc3ccccc3)c3ccccc3n2)c1` [XXV-2], for which the half-maximal inhibitory concentration (IC50) on p97 (p97 ATPase assay) came out at 34 ± 16 µM; in experiment [1] (setting [4]), 12 ± 2 µM.

`c1ccc(CNc2ccnc(N3CCOc4ccccc43)n2)cc1` [XX]: the IC50 on p97 (p97 ATPase assay) was determined as 2.9 ± 0.2 µM; in experiment [1] (setting [4]) it was 27 ± 3 µM.

For the compound `Cc1nc(N2CCOc3ccccc32)nc(NCc2ccccc2)c1C` [X], the IC50 at p97 (setting [2]) is 1.1 ± 0.2 µM; in experiment [1] (setting [3]), 10 ± 1 µM.
